The subject of series [1] is bloodstream form of T. b. brucei strain 427. The series can be described thus: Viability assay for T. b. brucei (whole parasite, bioluminescence). In kind it is cell-based. Particulars: 24 h; for T. b. brucei (BS) proliferation [% at 10 μM]: 10 μM compound; for EC50: Trypanosoma brucei, read-out: T. b. brucei (BS) [EC50. On the procedure:
Viability assay for T. b. brucei. The bloodstream form of the monomorphic T. b. brucei strain 427, cell line 5141313, constitutively and stably expressing an ectopic copy of the Photinus pyralis red-shifted luciferase, was cultured in vitro with HMI-9 medium, supplemented with 10% fetal bovine serum, 10 U/mL penicillin (Gibco), 10 μg/mL streptomycin (Gibco), 0.2 μg/mL bleomycin (Jena Bioscience), 4 μg/mL G418 disulfate salt (Sigma-Aldrich) and 0.2 μg/mL puromycin (Invitrogen), inside a humidified incubator (Thermo Fisher Scientific) with controlled temperature (37°C) and CO2 (5%) in a 25 or 75 cm^2 vented-cap culture-flask. The anti-trypanosomal activity of compounds was evaluated in a 96-well culture plate containing 2.2 μL/well DMSO (negative control) or compounds dissolved in DMSO (1% final concentration), and 220 μL/well of a suspension of 1 × 10^5 parasites/mL. The plates were incubated at 37°C and 5% CO2 for 24 h. Next, each well was transferred to a 96-well black plate, and 20 μL of a solution containing d-luciferin (1.5 mg/mL in PBS glucose 1% w/v) and Triton X-100 (0.05% v/v) was added. Bioluminescence signal was measured in a LUMIstar OPTIMA Microplate luminometer using the following settings: 10 s shaking, 5 s/well acquisition, 0.2 s measurement delay, maximum gain, and 37°C. For the bioluminescence assay, parasite viability was calculated according to the following formula: parasiteviability%=BLcpd-BLblank/BLneg-BLblank*100%
BL refers to the mean of bioluminescence signal corresponding to the tested compound (cpd), the blank (blank, complete media containing 1% v/v DMSO), or the negative control (neg, parasites treated with 1% v/v DMSO). EC50 values were determined from concentration-response curves fitted to a four-parameter sigmoid equation using the GraphPad Prism software (version 6.0). All errors are expressed as one SD, estimated as σ^n-1. For a detailed explanation of the protocol, see Dibello et al..

A short description of series [2]: Thermodynamic aqueous solubility, shake-flask method and HPLC-UV. Particulars: phosphate-buffered saline, aqueous buffer, thermodynamic from solid, PBS pH 7.4, 25°C, up to 72 h, HPLC-UV, logS of molar solubility [M]. In kind it is physicochemical. The method, then:
Phosphate-buffered saline pH 7.4 was prepared according to the European Pharmacopeia 10.4 by dissolving 2.38 g sodium monohydrogen phosphate dodecahydrate, 0.19 g potassium dihydrogen phosphate and 8.0 g sodium chloride in demineralised water (to a total volume of 1000 mL). The pH was adjusted to a value of 7.4 with hydrochloric acid. The buffer was filtered through a 0.45 μm membrane filter (Chromafil® Xtra PES-45/25) before use.
The thermodynamic aqueous solubility was determined by a miniaturised shake-flask method. […] A negative control with the buffer (400 μL) was incubated for every time point and measured likewise. After incubation for 24 h, 48 h and 72 h, the vials were checked for undissolved compound; then the filter plunger was punched into the vial for filtration. […] The calibration curve was obtained from at least three dilutions and five measuring points from a DMSO stock solution of the respective compound.

The target of series [3] is trypanothione synthetase of L. infantum (LiTryS) (Leishmania infantum, UniProt A4I2Z3). Kind of series: TryS activity screening assay on recombinant LiTryS. The series is classed as biochemical. Particulars: for activity at 30 µM: read-out: LiTryS activity [% at 30 μM]; for IC50: recombinant TryS, errors 2 SD, read-out: LiTryS inhibition [IC50. The method, boiled down: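 N-His-tagged TryS from E. coli, purified by IMAC and SEC; end-point reaction with 150 μM ATP, 2 mM Spd, GSH 0.05 mM (TbTryS) or 0.25 mM (LiTryS), enzyme 3*10^−5 (TbTryS) or 2*10^−5 (LiTryS) μmol*min^-1*mL^-1. Stopped after 15 min with BIOMOL GREEN; A650 activity relative to blank-corrected DMSO control.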

≈ marks a conversion by molar mass, not a printed value. Bounds are passed on as bounds.

What is called EC50 is the concentration at which the effect is half-maximal. A word on the solubility (thermodynamic): it is the concentration in solution at equilibrium with solid. Broadly, the IC50 is the concentration needed to halve the response being measured.

Chain of trypanothione synthetase of L. infantum (LiTryS) (A4I2Z3 entry or part of it): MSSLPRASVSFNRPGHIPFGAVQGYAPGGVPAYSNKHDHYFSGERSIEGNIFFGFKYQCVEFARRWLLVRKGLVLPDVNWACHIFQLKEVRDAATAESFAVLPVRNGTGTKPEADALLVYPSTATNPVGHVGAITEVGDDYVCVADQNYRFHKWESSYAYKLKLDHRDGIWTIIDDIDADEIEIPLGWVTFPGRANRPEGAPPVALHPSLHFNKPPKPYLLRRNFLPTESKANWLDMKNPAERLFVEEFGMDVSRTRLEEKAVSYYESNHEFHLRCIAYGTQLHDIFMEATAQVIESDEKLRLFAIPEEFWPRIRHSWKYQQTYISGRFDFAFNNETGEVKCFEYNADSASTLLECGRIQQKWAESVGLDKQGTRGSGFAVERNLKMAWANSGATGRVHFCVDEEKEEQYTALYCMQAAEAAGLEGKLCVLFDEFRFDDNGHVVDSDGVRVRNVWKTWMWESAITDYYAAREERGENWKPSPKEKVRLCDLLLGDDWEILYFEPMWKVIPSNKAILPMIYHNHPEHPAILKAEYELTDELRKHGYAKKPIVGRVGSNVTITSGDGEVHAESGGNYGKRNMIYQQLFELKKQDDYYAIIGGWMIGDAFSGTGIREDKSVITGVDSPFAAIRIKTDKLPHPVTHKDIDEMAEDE

For the compound `CNCCNC(=O)CN1C(=O)Cc2c([nH]c3ccc(I)cc23)-c2ccc(Cl)cc21` [1f, 2-(3-Chloro-9-iodo-6-oxo-7,12-dihydrobenzo[2,3]azepino[4,5-b]indol-5(6H)-yl)-N-[2-(methylamino)ethyl]acetamide], in series [1], the “T. b. brucei (BS) proliferation [% at 10 μM]” value (“T. b. brucei … [% at 10 μM]” below) is reported as 0.0 ± 1.7% and the EC50 stood at 6400 ± 1700 nM. This compound showed a solubility (thermodynamic) at 72 h in series [2] of 1.7e-06 M (≈ 0.888 µg/mL). For the same compound, in series [3], the activity at 30 µM was determined as 2.2 ± 0.6% and the IC50 stood at 70 ± 30 nM.

Regarding `CNCCNC(=O)CN1C(=O)Cc2c([nH]c3ccc(Cl)cc23)-c2ccc(Cl)cc21` [1g, 2-(3,9-Dichloro-6-oxo-7,12-dihydrobenzo[2,3]azepino[4,5-b]indol-5(6H)-yl)-N-[2-(methylamino)ethyl]acetamide], in series [1], the “T. b. brucei … [% at 10 μM]” value turned out to be 0.0 ± 0.3% and the EC50 was 4700 ± 1100 nM. This compound showed a solubility (thermodynamic) at 72 h in series [2] of 1.29e-05 M (≈ 5.56 µg/mL). Moreover, in series [3], the activity at 30 µM was found to be 2.2% and the IC50 was 390 ± 60 nM.

Regarding `CNCCNC(=O)CN1C(=O)Cc2c([nH]c3ccc(C(F)(F)F)cc23)-c2ccc(Cl)cc21` [1h, 2-(3-Chloro-6-oxo-9-trifluoromethyl-7,12-dihydrobenzo[2,3]azepino[4,5-b]indol-5(6H)-yl)-N-[2-(methylamino)ethyl]acetamide], in series [1], the “T. b. brucei … [% at 10 μM]” value is listed as 0.9 ± 1.3% and the EC50 came out at 6600 ± 1100 nM. The compound also came in with a thermodynamic solubility at 72 h in series [2] below 2.95e-07 M. Moreover, in series [3], the activity at 30 µM was found to be 0% and the IC50 was 60 ± 40 nM.

The record behind these values is paper PMC10688702, “The indole motif is essential for the antitrypanosomal activity of N^5-substituted paullones” (PLOS ONE, 2023).
